# Laboratory results from US20220091133A1, “METHODS AND ASSAYS FOR IMMUNE PHENOTYPING” (Washington University, priority 2020, published 2022).
# Columns and labels:
# [1] = system: diluted whole blood (T cell IFN-γ production); assay: Whole blood ELISpot, CD3/CD28-stimulated IFN-γ production (Example 2); assay type: cell-based, human
# Description: Innate and adaptive immune function was assessed using ELISpot analysis by measurement of the production of IFN-γ and TNF-α in ex vivo-stimulated cells following overnight culture. Capture Ab precoated 96-well polyvinylidene difluoride-backed strip plates were used for single color enzymatic assays (ImmunoSpot; Cellular Technology [CTL], Cleveland, Ohio) for detection of human IFN-γ and TNF-α. ELISpot culture procedure was followed as directed using instructions from the ELISpot kit. Samples were run in duplicate for each test condition. Plates were prepared with stimulant and were incubated at 37° C. and 5% CO2 for 30 min prior to plating cells. Identical conditions were prepared for comparison of whole blood assay to PBMC assay, and culture media alone was used as a negative control. Combination of 500 ng/ml of anti-CD3 (clone HIT3a; BioLegend) with 2.5 μg/ml of anti-CD28 (clone CD28.2; BioLegend) Abs were used to induce IFN-γ, and 2.5 ng/ml LPS (from Salmonella abortus equi S-form, ALX-581-009; Enzo Life Sciences, Farmingdale, N.Y.) was used to induce TNF-α wells. Total well volume for all samples was 200 μl. PBMCs were plated into wells in quantities of 2.5×10^4 cells per well for IFN-γ and 2.5×10^3 cells per well for TNF-α. The relevant volume for 5×10^4 leukocytes of diluted whole blood (in culture media) was plated in each well based on complete blood counts performed in the clinical research core laboratory at Washington University. PBMCs and diluted whole blood were costimulated with and without recombinant human IL-7 (Escherichia coli-derived protein, product no. 207-IL; R&D Systems, Minneapolis, Minn.). ELISpot assays were incubated overnight for 18-22 h at 37° C. and 5% CO2 as previously described (29). […]
# Samples were scanned, analyzed, and quality controlled for spot count, spot area, and TWI using a Cellular Technology series 6 ImmunoSpot Universal Analyzer with ImmunoSpot 7.0 professional software (Cellular Technology Analyzers, Shaker Heights, Ohio). […]
# The number of cytokine-secreting cells present in each ELISpot well is referred to as spot-forming units (SFU) and is reported in two distinct ways. […] The number of lymphocytes in each well was determined based upon the absolute lymphocyte count as measured by the patients' complete blood count. For ELISpot studies involving PBMCs, flow cytometry was performed on the PBMC fraction, and the number of lymphocytes, monocytes, and residual neutrophils were determined. […] Samples were acquired on FACScan (Becton Dickenson, Franklin Lakes, N.J.) with a five-color modification (CyTek Biosciences, Fremont, Calif.) and analyzed using FlowJo 10.2 (FlowJo, Ashland, Oreg.) as previously described (28). […]
# [2] = system: Trichosporon asahii and Saksenaea species; assay: Tissue, wound, blood and bone cultures of the fungal wound sepsis patient; assay type: in vivo, human
# Source text: They were aggressively treated with daily or alternating-day operative debridement, broad-spectrum parenteral and topical antibacterial and antifungal therapy. Antimicrobial therapy included ceftazidime, metronidazole, trimethoprim-sulfamethoxazole, micafungin, amphotericin B, and posaconazole (FIG. 29), as well as VERAFLO vac instillation of antimicrobials into the wound bed. The patient's polymicrobial soft tissue infection continued to advance and was accompanied by multisystem organ failure and shock. Over a 4-week period, they required debridement of >3000 cm^2 of skin, subcutaneous tissue, and muscle involving the entire perineum, bilateral thighs, buttocks, and circumferential abdominal wall (FIG. 28B).
# Tissue histology also became negative for fungus at approximately the same time as tissue cultures (FIG. 28E).
# [3] = system: pSTAT5 in CD4 and CD8 T cells; assay: Mass cytometry (CyTOF) of intracellular phospho-STAT5 in T cells; assay type: in vivo, human
# Source text: To measure the specific molecular effects underlying the increased T cell responsiveness induced by IL-7, we measured intracellular levels of phospho-STATS (pSTAT5) in CD4 and CD8 T cells using mass cytometry. STATS is the primary T cell differentiation signal downstream of the IL-7 receptor [12]. T cells were identified based on surface marker staining (CD45+/CD15−/CD66b−/CD56−/CD3+). We then measured the pSTAT5 signal intensity. IL-7 was associated with a 3-fold increase in activated STATS in CD4-T cells and a 2-fold increase in CD8-T cells (FIG. 28C).
# [4] = system: lymphocytes in infected wound; assay: Anti-CD3 immunohistochemical staining of wound biopsies; assay type: in vivo, human; settings: after initiation of IL-7
# Source text: A beneficial effect of IL-7 in infectious disorders is to increase expression of lymphocyte adhesion molecules and induce lymphocyte trafficking to sites of infection.
# [5] = system: peripheral blood mononuclear cells (T cell IFN-γ production); assay type: cell-based, human
# [6] = system: PBMCs (T cell IFN-γ production); settings: critically ill COVID 19 disease patients, reference 18; cited from earlier work
# fungal sepsis = settings: in vivo; cited from earlier work
substance,measurement,setting,value
"IL-7: recombinant human IL-7, immunoadjuvant and potent T cell activator; R&D Systems ex vivo, RevImmune for patients",effect of IL-7 on IFN-γ SFUs,[1]; healthy subjects and CINS patients,significantly increased
same,increase in IFN-γ spot numbers with IL-7,[1]; sepsis nonsurvivors,312%±240
same,increase in IFN-γ spot numbers with IL-7,[1]; sepsis survivors,102%±32
same,increase in the number of IFN-γ spots when stimulated with IL-7,"[1]; septic patients overall (n=19), CD3/CD28 + IL-7, p<0.005",172%±77
same,tissue cultures after initiation of IL-7 therapy,[2]; by the fifth dose of IL-7,persistently negative cultures
same,"time blood, wound and bone cultures stayed negative for bacterial or fungal pathogens after completing IL-7 therapy","[2]; human, in vivo",40 days
same,increase in activated STAT5 (pSTAT5 signal intensity),[3]; CD4-T cells,3 fold
same,increase in activated STAT5 (pSTAT5 signal intensity),[3]; CD8-T cells,2 fold
same,STAT5 expression in lymphocytes after initiation of IL-7 compared with pretreatment,"[3]; CyTOF, geometric mean raw signal intensity",doubling
same,number of CD3+ lymphocytes in biopsies from the infected wound,[4],marked increase
same,T cell function on coincubation with both dexamethasone and IL-7,[5],restored
same,lymphocyte IFN-γ production on ex vivo addition of IL-7 to PBMCs,[6],doubled
same,survival in a 2-hit animal model of fungal sepsis,fungal sepsis,increase survival
